Source: ChEMBL document CHEMBL5096216, “Rational Design, Synthesis, and Biological Evaluation of Novel S1PR2 Antagonists for Reversing 5-FU-Resistance in Colorectal Cancer” (J Med Chem, 2022)

Columns and labels:
SW620/5-FU [1] = assay: Antitumor activity against human SW620/5-FU cells xenografted in nude mouse assessed as tumor volume at 15 mg/kg, iv administered once daily and measured on day 1 (reference value: 105 +/- 14 mm3); format: functional; details: time 1 day
HT-29 [2] = assay: Antiproliferative activity against human HT-29 cells assessed as reduction in cell viability at 40 uM incubated for 48 hrs by MTT assay; format: functional
HCT-116 [3] = assay: Antiproliferative activity against human HCT-116 cells assessed as reduction in cell viability incubated for 48 hrs by MTT assay; details: HCT-116, 48 h
SW-620 [4] = assay: Antiproliferative activity against human SW620 cells assessed as reduction in cell viability incubated for 48 hrs by MTT assay; format: functional, cell-based; details: SW-620, 48 h
HCT-116 [5] = assay: Antiproliferative activity against human HCT-116 cells assessed as cell growth inhibition at 40 uM incubated for 48 hrs by MTT assay relative to control; format: functional; set-up: scale not given: the % may be the effect or the level left
SW-620 [6] = assay: Antiproliferative activity against human SW620 cells assessed as cell growth inhibition at 40 uM incubated for 48 hrs by MTT assay relative to control; format: functional; set-up: scale not given: the % may be the effect or the level left
HT-29 [7] = assay: Antiproliferative activity against human HT-29 cells assessed as cell growth inhibition at 40 uM incubated for 48 hrs by MTT assay relative to control; format: functional; set-up: scale not given: the % may be the effect or the level left
HCT-116 [8] = assay: Antiproliferative activity against human HCT-116 cells overexpressing DPD assessed as reduction in cell viability at 40 uM incubated for 48 hrs by MTT assay; format: functional
SW620/5-FU [9] = assay: Antiproliferative activity against human SW620/5-FU cells assessed as reduction in cell viability at 40 uM incubated for 48 hrs by MTT assay; format: functional
NCM460 = assay: Cytotoxicity against human NCM460 cells assessed as reduction in cell viability at 40 uM incubated for 48 hrs by MTT assay; format: toxicity, cell-based; details: ncm460, 48 h
SW620/5-FU [10] = assay: Induction of apoptosis in human SW620/5-FU cells assessed as viable cells at 40 uM incubated for 24 hrs by Annexin-V/PI staining based flow cytometry assay (reference value: 94.3%); format: functional; details: read-out: Activity
SW620/5-FU [11] = assay: Induction of apoptosis in human SW620/5-FU cells assessed as early apoptotic cells at 40 uM incubated for 24 hrs by Annexin-V/PI staining based flow cytometry assay (reference value: 2.73%); format: functional
SW620/5-FU [12] = assay: Induction of apoptosis in human SW620/5-FU cells assessed as late apoptotic cells at 40 uM incubated for 24 hrs by Annexin-V/PI staining based flow cytometry assay (reference value: 2.97%); format: functional
SW620/5-FU [13] = assay: Induction of apoptosis in human SW620/5-FU cells assessed as necrotic cells at 40 uM incubated for 24 hrs by Annexin-V/PI staining based flow cytometry assay (reference value: 0%); format: functional
SW620/5-FU [14] = assay: Antitumor activity against human SW620/5-FU cells xenografted in nude mouse assessed as tumor volume at 15 mg/kg, iv administered once for every 3 days and measured on day 15 (reference value: 1991 +/- 469 mm3); format: functional; details: time 15 day
SW620/5-FU [15] = assay: Antitumor activity against human SW620/5-FU cells xenografted in nude mouse assessed as tumor volume at 15 mg/kg, iv administered once for every 3 days and measured on day 1 (reference value: 105 +/- 14 mm3); format: functional; details: time 1 day
SW620/5-FU [16] = assay: Antitumor activity against human SW620/5-FU cells xenografted in nude mouse assessed as tumor volume at 15 mg/kg, iv administered once daily and measured on day 15 (reference value: 1991 +/- 469 mm3); format: functional; details: time 15 day
SW620/5-FU [17] = assay: Antitumor activity against human SW620/5-FU cells xenografted in nude mouse assessed as tumor wight at 15 mg/kg, iv administered once for every 3 days (reference value: 1.3 +/- 0.6 g); format: functional
SW620/5-FU [18] = assay: Antitumor activity against human SW620/5-FU cells xenografted in nude mouse assessed as tumor wight at 15 mg/kg/day, iv (reference value: 1.3 +/- 0.6 g); format: functional
SW620/5-FU [19] = assay: Antitumor activity against human SW620/5-FU cells xenografted in nude mouse assessed as tumor growth inhibition at 15 mg/kg, iv administered once for every 3 days; format: functional; details: 72 h, read-out: TGI
SW620/5-FU [20] = assay: Antitumor activity against human SW620/5-FU cells xenografted in nude mouse assessed as tumor growth inhibition at 15 mg/kg/day, iv; format: functional; details: read-out: TGI

In the case of O=c1[nH]cc(F)c(=O)[nH]1 [FLUOROURACIL], the Activity (SW620/5-FU [1]) is reported as 102 mm3, the Activity (HT-29 [2]) is reported as 5.14% and the IC50 (HCT-116 [3]) is reported as 21.5 µM. The IC50 (SW-620 [4]) was 13.2 µM, the Activity (HCT-116 [5]) was >70% and the Activity (SW-620 [6]) was >70%. For the same compound, the Activity (HT-29 [7]) was >70%, the Activity (HCT-116 [8]) was 8.12% and the Activity (SW620/5-FU [9]) was 9.13%. The Activity (NCM460) was 25.33%, the viability at 40 µM (SW620/5-FU [10]) was 87.7% and the Activity (SW620/5-FU [11]) was 4.41%. For the same compound, the Activity (SW620/5-FU [12]) was 7.76%, the Activity (SW620/5-FU [13]) was 0.17% and the Activity (SW620/5-FU [14]) was 1675 mm3. The Activity (SW620/5-FU [15]) was 104 mm3, the Activity (SW620/5-FU [16]) was 1256 mm3 and the Activity (SW620/5-FU [17]) was 1.1 g. It also gave an Activity (SW620/5-FU [18]) of 0.8 g, an inhibition in vivo at 15 mg/kg (SW620/5-FU [19]) of 15.9% and an inhibition in vivo at 15 mg/kg/day (SW620/5-FU [20]) of 36.9%.
